Six compounds from ChEMBL document CHEMBL3596195, “Novel cajaninstilbene acid derivatives as antibacterial agents” (Eur J Med Chem, 2015) can be followed below.

What all share (assay type): functional
The subject of assay [1] is Staphylococcus aureus. The experiment in a line: Antibacterial activity against Staphylococcus aureus ATCC25923 assessed as bacterial growth inhibition after 24 hrs by broth dilution method. Particulars: ATCC25923, 24 h. A general note: In broth dilution the organism is exposed to a series of concentrations in liquid medium.
Assay [2] relates to Staphylococcus epidermidis. Nature of the assay: Antibacterial activity against Staphylococcus epidermidis ATCC12228 assessed as bacterial growth inhibition after 24 hrs by broth dilution method. The following applies: ATCC12228, 24 h.
A further assay concerns Bacillus subtilis. Nature of the assay: Antibacterial activity against Bacillus subtilis ATCC6633 assessed as bacterial growth inhibition after 24 hrs by broth dilution method. The following applies: ATCC6633, 24 h.
The next assay has as its system Escherichia coli. Nature of the assay: Antibacterial activity against Escherichia coli ATCC25922 assessed as bacterial growth inhibition after 24 hrs by broth dilution method. Particulars: ATCC25922, 24 h.
In the next assay the test system is Proteus vulgaris. The experiment in a line: Antibacterial activity against Proteus vulgaris ATCC49101 assessed as bacterial growth inhibition after 24 hrs by broth dilution method. Particulars: ATCC49101, 24 h.
The next assay has as its system Pseudomonas aeruginosa. The experiment in a line: Antibacterial activity against Pseudomonas aeruginosa ATCC2785 assessed as bacterial growth inhibition after 24 hrs by broth dilution method. Particulars: ATCC2785, 24 h.
Assay [3] has as its system Staphylococcus aureus. Nature of the assay: Antibacterial activity against methicillin-resistant Staphylococcus aureus ATCC43300 assessed as bacterial growth inhibition after 24 hrs by broth dilution method. Particulars: ATCC43300, 24 h.
Assay [4] has as its system Staphylococcus aureus. The experiment in a line: Antibacterial activity against methicillin-resistant Staphylococcus aureus ATCC523512 assessed as bacterial growth inhibition after 24 hrs by broth dilution method. The following applies: ATCC523512, 24 h.
Assay [5] has as its system Staphylococcus aureus. The experiment in a line: Antibacterial activity against methicillin-resistant Staphylococcus aureus ATCC425055 assessed as bacterial growth inhibition after 24 hrs by broth dilution method. Particulars: ATCC425055, 24 h.
Assay [6] concerns Staphylococcus aureus. Nature of the assay: Antibacterial activity against methicillin-resistant Staphylococcus aureus ATCC513045 assessed as bacterial growth inhibition after 24 hrs by broth dilution method. Particulars: ATCC513045, 24 h.
Assay [7] deals with Staphylococcus aureus. Nature of the assay: Antibacterial activity against methicillin-resistant Staphylococcus aureus ATCC62202 assessed as bacterial growth inhibition after 24 hrs by broth dilution method. The following applies: ATCC62202, 24 h.
Assay [8] relates to Staphylococcus aureus. The experiment in a line: Antibacterial activity against methicillin-resistant Staphylococcus aureus ATCC51033 assessed as bacterial growth inhibition after 24 hrs by broth dilution method. The following applies: ATCC51033, 24 h.
The test system of assay [9] is Staphylococcus aureus. Nature of the assay: Antibacterial activity against methicillin-resistant Staphylococcus aureus ATCC52056 assessed as bacterial growth inhibition after 24 hrs by broth dilution method. Particulars: ATCC52056, 24 h.
Assay [10] has as its system Staphylococcus aureus. The experiment in a line: Antibacterial activity against methicillin-resistant Staphylococcus aureus ATCC515992 assessed as bacterial growth inhibition after 24 hrs by broth dilution method. Particulars: ATCC515992, 24 h.
The test system of assay [11] is Staphylococcus aureus. Nature of the assay: Antibacterial activity against methicillin-resistant Staphylococcus aureus ATCC510019 assessed as bacterial growth inhibition after 24 hrs by broth dilution method. The following applies: ATCC510019, 24 h.

Converted amounts (≈) assume the structure as drawn.

Take `COc1cc(O)c(C(=O)O)c(/C=C/c2cccc(F)c2)c1`: the MIC with Staphylococcus aureus [1] was more than 128 µg/mL; in assay [2] it was 64 µg/mL (≈ 222 µM); with Bacillus subtilis it was more than 128 µg/mL; in the assay on Escherichia coli, more than 128 µg/mL; in the assay with Proteus vulgaris, more than 128 µg/mL; in the assay on Pseudomonas aeruginosa, more than 128 µg/mL. Further, the MIC was more than 128 µg/mL in the assay on Staphylococcus aureus [3]; 128 µg/mL (≈ 444 µM) in the assay with Staphylococcus aureus [4]; more than 128 µg/mL with Staphylococcus aureus [5]; more than 128 µg/mL in the assay on Staphylococcus aureus [6]; more than 128 µg/mL in the assay on Staphylococcus aureus [7]; more than 128 µg/mL with Staphylococcus aureus [8]. For the same compound, the MIC in the assay with Staphylococcus aureus [9], with Staphylococcus aureus [10] and in the assay on Staphylococcus aureus [11] was more than 128 µg/mL throughout.
In the case of `COc1ccc(/C=C/c2cc(OC)cc(O)c2C(=O)O)cc1`, the MIC with Staphylococcus aureus [1] was more than 128 µg/mL; in [2] it was more than 128 µg/mL; in the assay with Bacillus subtilis it was 64 µg/mL (≈ 213 µM); with Escherichia coli, more than 128 µg/mL; in the assay on Proteus vulgaris, more than 128 µg/mL; in the assay on Pseudomonas aeruginosa, more than 128 µg/mL. Moreover, the MIC in the assay on Staphylococcus aureus [3], in the assay with Staphylococcus aureus [4], in the assay with Staphylococcus aureus [5], in the assay with Staphylococcus aureus [6], with Staphylococcus aureus [7] and in the assay on Staphylococcus aureus [8] was more than 128 µg/mL in each case. Further, the MIC in the assay with Staphylococcus aureus [9], with Staphylococcus aureus [10] and in the assay on Staphylococcus aureus [11] was more than 128 µg/mL each time.
As for `COc1cc(/C=C/c2ccccc2)c(C(=O)O)c(O)c1CC=C(C)C`, the MIC in the assay with Staphylococcus aureus [1] is 16 µg/mL (≈ 47.3 µM); in [2] it was 16 µg/mL (≈ 47.3 µM); with Bacillus subtilis, 32 µg/mL (≈ 94.6 µM); in the assay on Escherichia coli, more than 128 µg/mL; with Proteus vulgaris, more than 64 µg/mL; in the assay on Pseudomonas aeruginosa it was more than 64 µg/mL. Also, the MIC came out at 16 µg/mL (≈ 47.3 µM) in the assay on Staphylococcus aureus [3]; 32 µg/mL (≈ 94.6 µM) in the assay on Staphylococcus aureus [4]; 16 µg/mL (≈ 47.3 µM) in the assay with Staphylococcus aureus [5]; 16 µg/mL (≈ 47.3 µM) with Staphylococcus aureus [6]; 8 µg/mL (≈ 23.6 µM) in the assay with Staphylococcus aureus [7]; 16 µg/mL (≈ 47.3 µM) in the assay with Staphylococcus aureus [8]. Besides, the results for the MIC in the assay on Staphylococcus aureus [9], with Staphylococcus aureus [10] and with Staphylococcus aureus [11] were 16 µg/mL (≈ 47.3 µM), 32 µg/mL (≈ 94.6 µM) and 32 µg/mL (≈ 94.6 µM), respectively.
In the case of `COC(=O)c1c(/C=C/c2ccccc2)cc(OC)c(CC=C(C)C)c1O`, the MIC (in the assay with Staphylococcus aureus [1]; in assay [2]; in the assay with Bacillus subtilis; in the assay on Escherichia coli; in the assay on Proteus vulgaris; in the assay on Pseudomonas aeruginosa) was more than 128 µg/mL in each case. In addition, the MIC in the assay with Staphylococcus aureus [3] is 128 µg/mL (≈ 363 µM); in the assay with Staphylococcus aureus [4] it was more than 128 µg/mL; in the assay with Staphylococcus aureus [5], 128 µg/mL (≈ 363 µM); in the assay with Staphylococcus aureus [6], 128 µg/mL (≈ 363 µM); in the assay with Staphylococcus aureus [7], 128 µg/mL (≈ 363 µM); with Staphylococcus aureus [8] it was more than 128 µg/mL. For the same compound, the MIC in the assay on Staphylococcus aureus [9], with Staphylococcus aureus [10] and with Staphylococcus aureus [11] was more than 128 µg/mL throughout.
For `COC(=O)c1c(/C=C/c2ccccc2F)cc(OC)c(CC=C(C)C)c1O`, the minimal inhibitory concentration (MIC) (in the assay on Staphylococcus aureus [1]; in [2]; with Bacillus subtilis; in the assay with Escherichia coli; in the assay with Proteus vulgaris; with Pseudomonas aeruginosa) was more than 128 µg/mL throughout. The MIC in the assay with Staphylococcus aureus [3] was 128 µg/mL (≈ 346 µM); with Staphylococcus aureus [4], more than 128 µg/mL; in the assay on Staphylococcus aureus [5] it was 128 µg/mL (≈ 346 µM); in the assay on Staphylococcus aureus [6], 128 µg/mL (≈ 346 µM); in the assay on Staphylococcus aureus [7], 128 µg/mL (≈ 346 µM); with Staphylococcus aureus [8], more than 128 µg/mL. The MIC in the assay on Staphylococcus aureus [9], in the assay on Staphylococcus aureus [10] and in the assay on Staphylococcus aureus [11] was more than 128 µg/mL throughout.
With `COC(=O)c1c(/C=C/c2cccc(F)c2)cc(OC)c(CC=C(C)C)c1O`, the MIC with Staphylococcus aureus [1] is 64 µg/mL (≈ 173 µM); in assay [2], more than 128 µg/mL; with Bacillus subtilis, 128 µg/mL (≈ 346 µM); in the assay with Escherichia coli, more than 128 µg/mL; in the assay with Proteus vulgaris it was more than 128 µg/mL; in the assay with Pseudomonas aeruginosa, more than 128 µg/mL. Also, the MIC in the assay with Staphylococcus aureus [3] is more than 128 µg/mL; in the assay with Staphylococcus aureus [4], 64 µg/mL (≈ 173 µM); with Staphylococcus aureus [5] it was more than 128 µg/mL; in the assay with Staphylococcus aureus [6], 128 µg/mL (≈ 346 µM); with Staphylococcus aureus [7] it was 128 µg/mL (≈ 346 µM); in the assay on Staphylococcus aureus [8], 128 µg/mL (≈ 346 µM). For the same compound, the MIC in the assay on Staphylococcus aureus [9] was more than 128 µg/mL; in the assay with Staphylococcus aureus [10], more than 128 µg/mL; in the assay with Staphylococcus aureus [11], 128 µg/mL (≈ 346 µM).

What is called MIC is the smallest concentration in the dilution series that meets the test's criterion for growth inhibition.
